Read-outs that look alike come from different tables or passages of the source.

For series [1] the following is noted: cited from earlier work.
The test system of series [2] is colon cancer cells (LOVO). Description: In vitro antiproliferative activity, SRB test, LoVo. Type of series: cell-based, human. To be noted: 72 h incubation, average of three determinations. The protocol: (§1) The in vitro antiproliferative activity against three human tumor cell lines, namely, non-small cell lung carcinoma (A549) (ATCC, Rockville, MD, USA), […] human ductal breast epithelial tumor cells (T47D) (ATCC, Rockville, MD, USA) and colon cancer cells (LOVO) (ATCC, Rockville, MD, USA), and normal murine embryonic fibroblast cells (BALB/3T3) (ATCC, Rockville, MD, USA), was assessed.
(§2) Cells were plated in 96-well sterile plates (Sarstedt, Costar) at a density of 10^4 cells per well (in 100 μL of culture medium) and incubated for 24 h. The tested compound was added in final concentrations ranging from 0.1 to 100 μg mL^−1, and the incubation was continued for an additional 72 h. The results of in vitro cytotoxic activity are expressed as an IC50 (the dose of compound (in μM) that inhibits proliferation rate of tumor cells by 50%) value compared to the untreated control cells. IC50 values are expressed as the averages of three independently reproduced experiments. The details of this technique were described by Skehan. The tests of the antiproliferative activity in vitro against both cell lines were performed with the SRB (sulforhodamine B) test using an automated microplate reader (Synergy H4 photometer, BioTek Instruments Inc., Winooski, VT, USA). Moreover, in vitro toxicity against normal murine fibroblast Balb3T3 cells was assessed.
In general terms: In SRB staining, fixed cells bind dye roughly in proportion to their protein.

Series [3] concerns human ovarian carcinoma cell lines resistant to cisplatin (A2780R). More on the design: method as in PMID 19783310. To be noted: read-out: in vitro activity against A2780R; cited from earlier work.
In series [4] the test system is non-small cell lung carcinoma (A549). As to the kind of experiment: In vitro antiproliferative activity, SRB test, A549. Type of series: cell-based, human. To be noted: A549, 72 h incubation, average of three determinations. The protocol: as §1, §2
The subject of series [5] is normal murine embryonic fibroblast cells (BALB/3T3). As to the kind of experiment: In vitro toxicity against normal fibroblasts, SRB test, BALB/3T3. Type of series: cell-based. To be noted: BALB/3T3 normal cells, 72 h incubation, average of three determinations. The protocol:
as §2, with “The results of in vitro cytotoxic activity are expressed as an IC50 (the dose of compound (in μM) that inhibits proliferation rate of tumor cells by 50%) value compared to the untreated control cells.” left out

In series [6] the test system is cisplatin-resistant human ductal breast epithelial tumor cells (T47D). Description: In vitro antiproliferative activity, SRB test, T47D. To be noted: 72 h incubation, average of three determinations. Type of series: cell-based. The protocol:
as §1, §2

Series [7] is described as follows: Partition coefficient (logP), shake-flask method. To be noted: n-octanol / aqueous 0.9% NaCl, UV-Vis. Type of series: physicochemical. The protocol:
The lipophilicity (logP) of the platinum(II) compounds was determined using the shake–flask method. At first, aqueous (0.9% w/v) sodium chloride and organic (n–octanol) phases were saturated for 1 week. […] An equal volume of immiscible solvent was added, and the solutions were mixed mechanically in plastic tubes for 30 min. Samples were centrifuged (6000 rpm, 15 min). After separation, the phases were analyzed by UV–Vis spectroscopy to determine the amount of the compound in each phase. The absorption values before and after shaking were compared, and based on the Lambert–Beer law, the partition coefficient in both phases for each compound was calculated to determine the logP values. The procedures were repeated threefold.

Take `CC(C)(C)c1cc(C(C)(C)C)n2ncnc2n1.CC(C)(C)c1cc(C(C)(C)C)n2ncnc2n1.O=C([O-])CC(=O)[O-].[Pt+2]` [[Pt(mal)(dbtp)2]]: in series [1] (symmetrical malonato complexes, previous work), the logP is listed as 2.07.

For `N.N.O=C([O-])C1(C(=O)[O-])CCC1.[Pt+2]` [carboplatin], in series [1] (literature data for platinum(II) drugs), the log partition coefficient (log P) is −2.30.

Regarding `N.N.[Cl][Pt][Cl]` [cisplatin, reference compound], the IC50 in series [2] is 0.84 ± 0.3 µM; in series [3], 20.4 µM; in series [4], 9 ± 1.1 µM; in series [5], 3.2 ± 1.5 µM; in series [6] it was 3.11 ± 1.2 µM.

Take “(Dimethylsulfoxide-κS)(5,7-ditertbutyl-1,2,4-triazolo[1,5-a]pyrimidine-κN(3))(cyclobutane-1,1- dicarboxylato-κ^2O,O′))platinum(II) monoaqua hydrate [Complex 3]”: the IC50 is 20 ± 2.8 µM in series [2], 5 ± 0.9 µM in series [4], 10.2 ± 6.2 µM in series [5] and 6.6 ± 4.8 µM in series [6]. Moreover, in series [7], the “log P” value is −1.69.

For the molecule “(Dimethylsulfoxide-κS)(5,7-ditertbutyl-1,2,4-triazolo[1,5-a]pyrimidine-κN(3))(malonato-κ^2O,O′) platinum(II) [Complex 1]”, the IC50 stood at 27.9 ± 1 µM in series [2], 16.3 ± 9.9 µM in series [4], 30.2 ± 22.6 µM in series [5] and 17.1 ± 10.5 µM in series [6]. Moreover, the log partition coefficient (log P) in series [7] is listed as −1.58.

Regarding “(Dimethylsulfoxide-κS)(7-isobutyl-5-methyl-1,2,4-triazolo[1,5-a]pyrimidine-κN(3))(cyclo- butane-1,1-dicarboxylato-κ^2O,O′))platinum(II) monoaqua hydrate [Complex 4]”, the IC50 in series [2] came to 41.2 ± 1.6 µM; in series [4], 57.3 ± 11.3 µM; in series [5], 73.4 ± 29.7 µM; in series [6] it was 21.9 ± 17.2 µM. Besides, in series [7], the lipophilicity (log P) is −1.23.

For the molecule “(Dimethylsulfoxide-κS)(7-isobutyl-5-methyl-1,2,4-triazolo[1,5-a]pyrimidine-κN(3))(malonato- κ^2O,O′)platinum(II) monoaqua hydrate [Complex 2]”, the IC50 is 38.4 ± 1.8 µM in series [2], 57.8 ± 13.5 µM in series [4], 46 ± 40.7 µM in series [5] and 42.6 ± 19 µM in series [6]. In series [7], the “log P” value was −0.65.

By logP is commonly meant a log measure of how a compound divides between an organic and an aqueous phase. The term log P denotes a log measure of how a compound divides between an organic and an aqueous phase.

Source of the values: article PMC7727669, “Platinum(II) Complexes with Bulky Disubstitute Triazolopyrimidines as Promising Materials for Anticancer Agents” (Materials, 2020).
